Data reported in US6737383B1, “Herbicidal oxadiazolidines” (priority 1999, dated 2004).

Tests used:
bedstraw = experiment: Test B pre/postemergence bedstraw; assay type: in vivo, Galium aparine
Summary of the method: (§1)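 Test chemicals in a non-phytotoxic solvent mixture with surfactant were sprayed preemergence onto planted seeds and postemergence onto plants 2 to 18 cm tall (1- to 4-leaf stage). After twelve to sixteen days in a greenhouse, injury was visually rated against untreated controls from 0 (no effect) to 10 (complete control).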

blackgrass = experiment: Test B pre/postemergence blackgrass; assay type: in vivo, Alopecurus myosuroides
Summary of the method: as §1

surinam grass = experiment: Test B pre/postemergence surinam grass; assay type: in vivo, Brachiaria decumbens
Summary of the method: as §1

corn = experiment: Test B pre/postemergence corn; assay type: in vivo, Zea mays
Summary of the method: as §1

giant foxtail = experiment: Test B pre/postemergence giant foxtail; assay type: in vivo, Setaria faberii
Summary of the method: as §1

morningglory = experiment: Test B pre/postemergence morningglory; assay type: in vivo, Ipomoea hederacea
Summary of the method: as §1

pigweed = experiment: Test B pre/postemergence pigweed; assay type: in vivo, Amaranthus retroflexus
Summary of the method: as §1

rape = experiment: Test B pre/postemergence rape; assay type: in vivo, Brassica napus
Summary of the method: as §1

soybean = experiment: Test B pre/postemergence soybean; assay type: in vivo, Glycine max
Summary of the method: as §1

sugar beet = experiment: Test B pre/postemergence sugar beet; assay type: in vivo, Beta vulgaris
Summary of the method: as §1

velvetleaf = experiment: Test B pre/postemergence velvetleaf; assay type: in vivo, Abutilon theophrasti
Summary of the method: as §1

purple nutsedge = experiment: Test B pre/postemergence purple nutsedge; assay type: in vivo, Cyperus rotundus
Summary of the method: as §1

rice = experiment: Test B flood test rice; assay type: in vivo, Oryza sativa
Summary of the method: (§2)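 Read-out is a visual response score from 0 (no effect) to 10 (complete control), assigned by comparison with untreated controls. Treatment was applied at the 2-leaf stage, and plants stayed in the greenhouse for twelve to sixteen days before scoring.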

smallflower flatsedge = experiment: Test B flood test smallflower flatsedge; assay type: in vivo, Cyperus difformis
Summary of the method: as §2

duck salad = experiment: Test B flood test duck salad; assay type: in vivo, Heteranthera limosa
Summary of the method: as §2

bamyardgrass = experiment: Test B flood test barnyardgrass; assay type: in vivo, Echinochloa crus-galli
Summary of the method: as §2

[1] = Postemergence, Rate 31 g/ha, visual rating, scale 0 to 10 (0 no effect, 10 complete control)
[2] = Preemergence, Rate 250 g/ha, scale of 0 to 10 where 0 is no effect and 10 is complete control
[3] = Rate 62 g/ha, Postemergence, scale 0 to 10 (0 no effect, 10 complete control)
[4] = Rate 125 g/ha, Postemergence, scale of 0 to 10 where 0 is no effect and 10 is complete control
[5] = Rate 250 g/ha, Postemergence, scale of 0 to 10 where 0 is no effect and 10 is complete control
[6] = Preemergence, Rate 31 g/ha, visual rating, scale 0 to 10 (0 no effect, 10 complete control)
[7] = Preemergence, Rate 62 g/ha, scale of 0 to 10 where 0 is no effect and 10 is complete control
[8] = Rate 31 g/ha, Pre-emergence section (flood test species), scale 0 to 10
[9] = Rate 62 g/ha, headed Pre-emergence (flood test species), scale 0 to 10 (0 no effect, 10 complete control)
[10] = Rate 125 g/ha, Pre-emergence, flood test species, scale 0 to 10 where 0 is no effect and 10 is complete control
[11] = Rate 250 g/ha, Pre-emergence, flood-test species, scale 0 to 10, 0 is no effect, 10 is complete control

## Cc1cccc(C)c1-n1c(=O)on(C(=O)N(c2ccc(Cl)cc2Cl)C2CCC2)c1=O [Compound 318]
bedstraw; [1]
  Bedstraw plant response rating: 0
bedstraw; Preemergence, Rate 125 g/ha
  Bedstraw plant response rating (0 to 10 scale): 0
bedstraw; [2]
  Bedstraw plant response rating: 0
bedstraw; [3]
  Bedstraw plant response rating: 0
bedstraw; [4]
  Bedstraw plant response rating: 0
bedstraw; [5]
  Plant response rating, Bedstraw: 0
blackgrass; [1]
  Blackgrass plant response rating: 0
blackgrass; [6]
  Blackgrass plant response rating: 0
blackgrass; [7]
  Blackgrass plant response rating: 0
blackgrass; Preemergence, Rate 125 g/ha
  Blackgrass plant response rating (0 to 10 scale): 0
blackgrass; [2]
  Blackgrass plant response rating: 0
blackgrass; [3]
  Blackgrass plant response rating: 0
blackgrass; [4]
  Blackgrass plant response rating: 0
blackgrass; [5]
  Plant response rating, Blackgrass: 0
Surinam grass; [1]
  B. signalgrass plant response rating: 0
Surinam grass; [6]
  B. signalgrass plant response rating: 0
Surinam grass; [7]
  B. signalgrass plant response rating: 0
Surinam grass; Preemergence, Rate 125 g/ha
  B. signalgrass plant response rating (0 to 10 scale, 0 is no effect, 10 is complete control): 0
Surinam grass; [2]
  B. signalgrass plant response rating: 0
Surinam grass; [3]
  B. signalgrass plant response rating: 0
Surinam grass; [4]
  B. signalgrass plant response rating: 0
Surinam grass; [5]
  Plant response rating, B. signalgrass: 0
corn; [1]
  Corn plant response rating: 0
corn; [6]
  Corn plant response rating: 0
corn; [7]
  Corn plant response rating: 0
corn; Preemergence, Rate 125 g/ha
  Corn plant response rating (0 to 10 scale): 0
corn; [2]
  Corn plant response rating: 0
corn; [3]
  Corn plant response rating: 0
corn; [4]
  Corn plant response rating: 0
corn; [5]
  Plant response rating, Corn: 0
Giant foxtail; [1]
  Giant foxtail plant response rating: 0
Giant foxtail; [6]
  Giant foxtail plant response rating: 0
Giant foxtail; [7]
  Giant foxtail plant response rating: 0
Giant foxtail; Preemergence, Rate 125 g/ha
  Giant foxtail plant response rating (0 to 10 scale): 0
Giant foxtail; [2]
  Giant foxtail plant response rating: 0
Giant foxtail; [3]
  Giant foxtail plant response rating: 0
Giant foxtail; [4]
  Giant foxtail plant response rating: 0
Giant foxtail; [5]
  Plant response rating, Giant foxtail: 0
morningglory; [1]
  Morningglory plant response rating: 0
morningglory; [7]
  Morningglory plant response rating: 0
morningglory; Preemergence, Rate 125 g/ha
  Morningglory plant response rating (0 to 10 scale): 0
morningglory; [2]
  Morningglory plant response rating: 0
morningglory; [3]
  Morningglory plant response rating: 0
morningglory; [4]
  Morningglory plant response rating: 0
morningglory; [5]
  Plant response rating, Morningglory: 3
pigweed; [1]
  Redroot pigweed plant response rating: 0
pigweed; [7]
  Redroot pigweed plant response rating: 0
pigweed; Preemergence, Rate 125 g/ha
  Redroot pigweed plant response rating (0 to 10 scale): 0
pigweed; [2]
  Redroot pigweed plant response rating: 0
pigweed; [3]
  Redroot pigweed plant response rating: 0
pigweed; [4]
  Redroot pigweed plant response rating: 0
pigweed; [5]
  Plant response rating, Redroot pigweed: 0
rape; [1]
  Rape plant response rating: 0
rape; [7]
  Rape plant response rating: 0
rape; Preemergence, Rate 125 g/ha
  Rape plant response rating (0 to 10 scale): 0
rape; [2]
  Rape plant response rating: 0
rape; [3]
  Rape plant response rating: 0
rape; [4]
  Rape plant response rating: 0
rape; [5]
  Plant response rating, Rape: 0
soybean; [1]
  Soybean plant response rating: 0
soybean; [7]
  Soybean plant response rating: 0
soybean; Preemergence, Rate 125 g/ha
  Soybean plant response rating (0 to 10 scale): 0
soybean; [2]
  Soybean plant response rating: 0
soybean; [3]
  Soybean plant response rating: 0
soybean; [4]
  Soybean plant response rating: 0
soybean; [5]
  Plant response rating, Soybean: 1
Sugar beet; [1]
  Sugarbeets plant response rating: 0
Sugar beet; [7]
  Sugarbeets plant response rating: 0
Sugar beet; Preemergence, Rate 125 g/ha
  Sugarbeets plant response rating (0 to 10 scale): 0
Sugar beet; [2]
  Sugarbeets plant response rating: 0
Sugar beet; [3]
  Sugarbeets plant response rating: 0
Sugar beet; [4]
  Sugarbeets plant response rating: 0
Sugar beet; [5]
  Plant response rating, Sugarbeets: 0
velvetleaf; [1]
  Velvetleaf plant response rating: 0
velvetleaf; [7]
  Velvetleaf plant response rating: 0
velvetleaf; Preemergence, Rate 125 g/ha
  Velvetleaf plant response rating (0 to 10 scale): 0
velvetleaf; [2]
  Velvetleaf plant response rating: 0
velvetleaf; [3]
  Velvetleaf plant response rating: 0
velvetleaf; [4]
  Velvetleaf plant response rating: 0
velvetleaf; [5]
  Plant response rating, Velvetleaf: 0
Purple nutsedge; [1]
  Nutsedge plant response rating: 0
Purple nutsedge; [7]
  Nutsedge plant response rating: 0
Purple nutsedge; Preemergence, Rate 125 g/ha
  Nutsedge plant response rating (0 to 10 scale): 0
Purple nutsedge; [3]
  Nutsedge plant response rating: 0
Purple nutsedge; [4]
  Nutsedge plant response rating: 0
Purple nutsedge; [5]
  Plant response rating, Nutsedge: 0
rice; [8]
  Rice plant response rating: 0
rice; [9]
  Rice plant response rating: 0
rice; [10]
  Rice plant response rating: 0
rice; [11]
  Rice plant response rating: 0
Smallflower flatsedge; [8]
  S. Flatsedge plant response rating: 0
Smallflower flatsedge; [9]
  S. Flatsedge plant response rating: 0
Smallflower flatsedge; [10]
  S. Flatsedge plant response rating: 0
Smallflower flatsedge; [11]
  S. Flatsedge plant response rating: 0
Duck salad; [8]
  Ducksalad plant response rating: 0
Duck salad; [9]
  Ducksalad plant response rating: 0
Duck salad; [10]
  Ducksalad plant response rating: 0
Duck salad; [11]
  Ducksalad plant response rating: 0
bamyardgrass; [8]
  Barnyardgrass plant response rating: 0
bamyardgrass; [9]
  Barnyardgrass plant response rating: 0
bamyardgrass; [10]
  Barnyardgrass plant response rating: 0
bamyardgrass; [11]
  Barnyardgrass plant response rating: 0
